Reference: ChEMBL document CHEMBL1130773, “Identification of a non peptidic RANTES antagonist” (Bioorg Med Chem Lett, 1998)
The source made the active and inactive calls. The rule behind the calls is not given here.

Test system: not listed separately
Test: Inhibition of [125I]RANTES binding to THP-1 cell membranes rich in C-C chemokine receptor types 1
Parameters: species or system Homo sapiens
Conditions: not given

Compound | IC50 [µM]
COC(=O)c1ccc2c(c1)N(CCCN1CCC3(CC1)C(=O)NCN3c1ccccc1)c1ccccc1S2 | 4
CN(C)S(=O)(=O)c1ccc2c(c1)N(CCCN1CCC(c3ccccc3)CC1)c1ccccc1S2 | 4.5
O=C1NCN(c2ccccc2)C12CCN(CCCN1c3ccccc3Sc3ccc(Cl)cc31)CC2 | 7
N#Cc1ccc2c(c1)N(CCCN1CCC3(CC1)C(=O)NCN3c1ccccc1)c1ccccc1S2 | 6
CN(C)S(=O)(=O)c1ccc2c(c1)N(CCCN1CCC(C3CCCCC3)CC1)c1ccccc1S2 | 2
CC(=O)c1ccc2c(c1)N(CCCN1CCC3(CC1)C(=O)NCN3c1ccccc1)c1ccccc1S2 | 3
CN(CCCc1ccccc1)CCCN1c2ccccc2Sc2ccc(S(=O)(=O)N(C)C)cc21 | 4
O=C1NCN(c2ccccc2)C12CCN(CCCN1c3ccccc3Sc3ccccc31)CC2 | 12
CN(C)S(=O)(=O)c1ccc2c(c1)N(CCCN1CCC3(CC1)C(=O)NCN3c1ccccc1)c1ccccc1S2 | 3
CN(C)C(=O)c1ccc2c(c1)N(CCCN1CCC3(CC1)C(=O)NCN3c1ccccc1)c1ccccc1S2 | 5
CN(C)S(=O)(=O)c1ccc2c(c1)N(CCCN1CCC(Cc3ccccc3)CC1)c1ccccc1S2 | 7
CN(C)S(=O)(=O)c1ccc2c(c1)N(CCCCN1CCC3(CC1)C(=O)NCN3c1ccccc1)c1ccccc1S2 | 10

Test system: THP-1
Test: Compound was tested in vitro for inhibition of [125I]RANTES binding to THP-1 cell membranes rich in C-C chemokine receptor type 1
Conditions: dose or concentration not given here

Compound | inhibition [%]
CN(C)S(=O)(=O)c1ccc2c(c1)N(CCN1CCC3(CC1)C(=O)NCN3c1ccccc1)c1ccccc1S2 | < 20
CN(C)S(=O)(=O)c1ccc2c(c1)N(CCCN1CCCCC1)c1ccccc1S2 | 38

Molecular target: C-C chemokine receptor type 2 (Homo sapiens) (UniProt P41597)
Sequence (P41597 whole entry, looked up): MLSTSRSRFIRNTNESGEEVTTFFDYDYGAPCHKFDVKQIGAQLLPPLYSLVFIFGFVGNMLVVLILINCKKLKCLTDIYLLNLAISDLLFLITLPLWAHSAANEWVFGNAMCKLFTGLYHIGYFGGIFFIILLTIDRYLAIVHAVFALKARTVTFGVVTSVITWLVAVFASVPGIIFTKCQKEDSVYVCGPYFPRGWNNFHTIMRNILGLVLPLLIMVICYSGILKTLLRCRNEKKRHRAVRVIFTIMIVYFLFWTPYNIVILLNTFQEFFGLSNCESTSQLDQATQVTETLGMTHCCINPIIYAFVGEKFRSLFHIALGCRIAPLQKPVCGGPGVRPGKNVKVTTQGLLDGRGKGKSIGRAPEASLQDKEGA
Test: Tested for inhibition of [125I]-MCP-1 receptor binding to THP-1 cell membranes at concentrations up to 30 uM; NI means no inhibition
Conditions: not given

Compound | inhibition
CN(C)S(=O)(=O)c1ccc2c(c1)N(CCCN1CCC3(CC1)C(=O)NCN3c1ccccc1)c1ccccc1S2 | inactive
